From paper PMC8704606, “The Artemiside-Artemisox-Artemisone-M1 Tetrad: Efficacies against Blood Stage P. falciparum Parasites, DMPK Properties, and the Case for Artemiside” (Pharmaceutics, 2021)
Like-named read-outs stand apart in the source and are kept apart here.

Assays:
[1] = tested on: early-stage (EG) Pf NF54 gametocytes; parameters: method as in PMID 29866868; conditions: early-stage gametocytes >95% stages II-III; 48 h incubation; ± SEM; cited from earlier work
[2] = tested on: CQ-resistant P. yoelii NS strain; conditions: cited from earlier work; for P. yoelii ED90 po / P. yoelii ED90 sc: Peters four-day test, mice, ref S4 (24); for P. yoelii ED90 sc: subcutaneous; for P. yoelii artesunate index sc: ref S4
[3] = tested on: P. falciparum asexual blood stage artemisinin-resistant clone ARC08-22 (4G) carrying the PfKI3 C580Y mutation; parameters: method as in ref S3; conditions: ref S3, cited from earlier work; for IC50 / IC90: 48 h life cycle, PfKI3 C580Y
Toxoplasma gondii (Tg) [4] = tested on: Toxoplasma gondii (Tg); parameters: method as in PMID 19635951; conditions: IFN-γ−/− female mice, 10 mg/kg/d for 8 days after cessation of sulfadiazine; cited from earlier work
P. berghei sporozoites = conditions: cited from earlier work; for Maximum inhibition % P. berghei sporozoites: ref S3; for IC50: luciferase-expressing P. berghei ANKA GFP-Luc-SMcon sporozoites in HepG2 cells, 48 h, ± SD, ref S3 (7)
HepG2 = conditions: ref S3, cited from earlier work; for EC50: read-out: Cytotoxicity EC50 HepG2
Toxoplasma gondii (Tg) [5] = tested on: Toxoplasma gondii (Tg); parameters: method as in PMID 19635951; conditions: read-out: EC50 against Tg in vitro; cited from earlier work
[6] = tested on: asexual blood stages of Pf W2 (drug resistant); parameters: method as in PMID 29866868, PMID 31998692; conditions: cited from earlier work; for IC50: asexual blood stage Pf W2, multidrug resistant, SYBR Green I, ± SEM
P. berghei ANKA strain = conditions: cited from earlier work; for outcome of combination with piperaquine: P. berghei ANKA infected mice, ip 0.66 mg/kg with piperaquine 10 mg/kg
P. falciparum W2 = tested on: P. falciparum W2; parameters: method as in ref S3; conditions: [3H]-hypoxanthine assay; ref S3; cited from earlier work
[7] = tested on: Chinese hamster ovary (CHO) cells; parameters: method as in PMID 29866868, PMID 31998692; conditions: other cell lines including CHO cells; read-out: EC50 cytotoxicity; cited from earlier work
[8] = tested on: asexual blood stages of Pf K1 (drug resistant); parameters: method as in PMID 29866868, PMID 31998692; conditions: cited from earlier work; for IC50: asexual blood stage Pf K1, multidrug resistant, SYBR Green I, ± SEM
[9] = cited from earlier work
[10] = tested on: type II tachyzoites (PRU-Luc-GFP); conditions: sc 10 mg/kg/d for 8 days; cited from earlier work
[11] = tested on: P. falciparum asexual blood stage artemisinin-resistant clone PL08-009 (5C) carrying the PfKI3 C580Y mutation; parameters: method as in ref S3; conditions: ref S3, cited from earlier work; for IC50 / IC90: 36 h life cycle, PfKI3 C580Y
[12] = tested on: fetal rat brain stem cells; conditions: ref S4 (24), cited from earlier work; for Viability NOEC: neuron-specific enolase activity, 7 days exposure
[13] = tested on: CQ-sensitive P. berghei N strain; conditions: cited from earlier work; for P. berghei ED90 po / P. berghei ED90 sc: Peters four-day test, mice, ref S4 (24); for P. berghei ED90 po: oral daily day 0-3; for P. berghei ED90 sc: subcutaneous daily day 0-3
7G8 (CQ resistant) = tested on: 7G8 (CQ resistant); parameters: method as in ref S2; conditions: [3H]-hypoxanthine assay; ref S2; read-out: Antimalarial activities IC50 7G8; cited from earlier work
[14] = tested on: TM91-C235 (CQ and MFQ resistant); parameters: method as in ref S2; conditions: [3H]-hypoxanthine assay; ref S2; read-out: Antimalarial activities IC50 TM91-C235; cited from earlier work
[15] = parameters: method as in PMID 18559649; conditions: clinical Phase I trial, subject plasma samples; cited from earlier work
W2 (CQ resistant) = tested on: W2 (CQ resistant); parameters: method as in ref S2; conditions: [3H]-hypoxanthine assay; ref S2; read-out: Antimalarial activities IC50 W2; cited from earlier work
[16] = tested on: asexual blood stages of Pf K1 (drug resistant); test: SYBR Green I proliferation assay, asexual blood stages, Pf K1; type: cell-based, Plasmodium falciparum
Experimental: Dose response curves are in Figures S1a–c and S2a–c in the Supplementary Material 1. Table 1 also includes the historical values for artemiside and artemisone obtained using the same assay.
All other assay conditions are as previously described. Compound working solutions were prepared from a 10 mM stock solution in 100% (vol/vol) dimethyl sulfoxide (DMSO, Sigma-Aldrich) in supplemented RPMI 1640 medium containing AlbuMAX II with a final DMSO concentration of 0.1% (vol/vol), previously determined to be nontoxic to blood stage asexual parasites and gametocytes. The dose-responses of the amino-artemisinins were assayed using a 2-fold serial drug dilution on in vitro 95% ring-stage parasites at 37 °C under 90% N2, 5% CO2, and 5% O2 atmospheric conditions, detecting SYBR green I fluorescence as the proliferative marker following a 96 h drug treatment (1% parasitemia and 1% hematocrit) using a GloMaxR-Multi+ Detection System (Promega). No drug washout steps were performed during drug incubation periods prior to the assays. Activity against the Pf drug-sensitive NF54 strain and the drug-resistant K1 (resistant to CQ, quinine, pyrimethamine, and cycloguanil) and W2 (resistant to CQ, quinine, pyrimethamine, and cycloguanil) strains was evaluated. Data analysis was performed using GraphPad Prism (version 6), intra-assay variability was monitored with Z-factors, and acceptable interassay reproducibility was determined from the percent coefficient of variation (CV).

[17] = 10 mg/kg/d for 14 days by gavage in sesame oil
[18] = 50 mg/kg/d for 14 days by gavage in sesame oil
[19] = ATP levels 1 day after initial administration

Compound | IC50 [1] | P. yoelii ED90 po [2] | P. yoelii ED90 sc [2] | P. yoelii artesunate index sc [2] | IC50 [3] | IC90 [3] | RI = IC50 for ARC08-22(4G)/IC50 for W2 [3] | mice with prolonged survival, reactivation stage (Toxoplasma gondii (Tg) [4]) | IC50 (P. berghei sporozoites) | EC50 (HepG2) | SI = EC50 HepG2/IC50 P. berghei sporozoites (HepG2) | EC50 (Toxoplasma gondii (Tg) [5]) | IC50 [6] | RI = IC50 W2/IC50 NF54 [6] | outcome of combination with piperaquine (P. berghei ANKA strain) | IC50 (P. falciparum W2) | IC90 (P. falciparum W2) | EC50 [7] | IC50 [8] | RI (resistance index) = IC50 K1/IC50 NF54 [8] | further results
C[C@H]1[C@H](N2CCSCC2)O[C@@H]2O[C@@]3(C)CC[C@H]4[C@H](C)CC[C@@H]1[C@@]24OO3 [Artemiside 5, Artemiside] | 16.4 ± 1 nM | 2.0 mg/kg | 0.61 mg/kg | 36.0 | 2.43 nM | 4.85 nM | 1.1 | 80% | 81.3 nM | > 25000 nM | > 308 | 108 nM | 1.75 ± 0.27 nM | 1.58 | survival of all mice, with no recrudescence taking place | 2.21 nM | 4.28 nM | > 241000 nM | 1.6 ± 0.4 nM | 1.47 | Maximum inhibition % P. berghei sporozoites (P. berghei sporozoites; at 5 µM): 99.05±1.34%; outcome in cerebral malaria model (P. berghei ANKA strain; mice infected with P. berghei ANKA, artemiside 3 mg/kg/d ip for 4 days (days 2–5 post-infection)): complete cure; neurotoxicity in vivo, effects observed [9, 17]: no effects were observed; neurotoxicity in vivo, effects observed [9, 18]: neurotoxic sequelae including body weight loss, reduced motility, uncoordinated gait, and piloerection; mice surviving the infection, acute phase [10]: 60%; IC50 [11]: 0.29 nM; IC90 [11]: 0.43 nM; RI = IC50 for PL08-09 (5C)/IC50 for W2 [11]: 0.1; ATP IC50 [12, 19]: 8.5 µg/mL; ATP NOEC [12, 19]: 1.0 µg/mL; ATP NOEC ([12]; ATP levels 1 day after initial administration, listed as artemiside): 1 µg/mL; Viability NOEC [12]: 1.0 µg/mL; Viability NOEC ([12]; listed as artemiside): 1 µg/mL; P. berghei ED90 po [13]: 1.9 mg/kg; P. berghei ED90 sc [13]: 0.51 mg/kg; P. berghei artesunate index sc (ED90 artesunate/ED90 compound) ([13]; ref S4): 14.1
C[C@H]1[C@H](N2CCS(=O)(=O)CC2)O[C@@H]2O[C@@]3(C)CC[C@H]4[C@H](C)CC[C@@H]1[C@@]24OO3 [Artemisone 7, Artemisone] | 1.94 ± 0.11 nM | 5.0 mg/kg | 3.9 mg/kg | 5.6 | 1.62 nM | 3.38 nM | 1.0 | 60% | 28.3 nM | > 50000 nM | > 1767 | 120 nM | 1.6 ± 0.4 nM | 1.36 | recrudescence with eventual mortality was observed | 1.69 nM | 3.42 nM | > 241000 nM | 1.01 ± 0.19 nM | 0.85 | IC50 (7G8 (CQ resistant)): 0.8 ± 0.1 nM; Maximum inhibition % P. berghei sporozoites (P. berghei sporozoites; at 10 µM): 93.35±1.76%; IC50 [14]: 1.1 ± 0.5 nM; fold higher ex vivo antimalarial activity at Tmax than corresponds to plasma concentration by LC-MS/MS [15]: 2.3 fold; IC50 (W2 (CQ resistant)): 1.3 ± 0.5 nM; neurotoxicity in vivo, effects observed [9, 17]: no effects were observed; neurotoxicity in vivo, effects observed [9, 18]: induced no effects; mice surviving the infection, acute phase [10]: over 50%; IC50 [11]: 0.27 nM; IC90 [11]: 0.43 nM; RI = IC50 for PL08-09 (5C)/IC50 for W2 [11]: 0.2; P. berghei ED90 po [13]: 3.1 mg/kg; P. berghei ED90 sc [13]: 1.5 mg/kg; P. berghei artesunate index po (ED90 artesunate/ED90 compound) ([13]; ref S4): 2.3; P. berghei artesunate index sc (ED90 artesunate/ED90 compound) ([13]; ref S4): 3.2
C[C@H]1[C@H](N2CC[S+]([O-])CC2)O[C@@H]2O[C@@]3(C)CC[C@H]4[C@H](C)CC[C@@H]1[C@@]24OO3 [Artemisox 6, Artemisox] |  |  |  |  |  |  |  |  |  |  |  |  |  |  |  |  |  |  |  |  | RI (resistance index) = IC50 K1/IC50 NF54 [16]: 0.8; IC50 ([16]; Plasmodium falciparum, asexual blood stage Pf K1, multidrug resistant, SYBR Green I, 96 h, ± SEM): 1.5 ± 0.5 nM; RI ratios ([16]; multidrug resistant K1 and W2 vs NF54): < 1
